Reference: the supplement of paper PMC9386025

System: Kuramochi
Assay: drug sensitivity score (DSS) (DSS (dimensionless)); higher = more sensitive (stronger drug response)
Settings: genetic perturbation: DOX-induced PTK7 shRNA knockdown
Method in brief: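 Ovarian cancer cell lines, after at least three days of shRNA induction with 100 ng/ml doxycycline, and patient-derived cultures were plated at 1 000 – 1 500 cells per well into 384-well plates pre-loaded with drugs at five concentrations spanning a 10,000-fold range. Plates were then kept for three days at 37 °C and 5.0 % CO2. Viability was measured as CellTiter-Glo luminescence on a PHERAstar FS, and each drug's dose-response curve was reduced to a drug sensitivity score computed by a previously described method.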

SMILES	drug sensitivity score
COc1cc(C(=O)O)ccc1NC(=O)[C@@H]1N[C@@H](CC(C)(C)C)[C@](C#N)(c2ccc(Cl)cc2F)[C@H]1c1cccc(Cl)c1F [Idasanutlin]	0.95
O=C(Nc1ccncc1)C(=O)c1cn(Cc2ccc(Cl)cc2)c2ccccc12 [Indibulin]	5.8
CC(C)NC[C@@H](C(=O)N1CCN(c2ncnc3c2[C@H](C)C[C@H]3O)CC1)c1ccc(Cl)cc1 [Ipatasertib]	0.35
CC(C)C[C@H](NC(=O)CNC(=O)c1cc(Cl)ccc1Cl)B(O)O [Ixazomib]	3.55
CCNCCS(=O)(=O)NC[C@@]1(c2ccccc2)SC(NC(=O)C(C)(C)C)=NN1C(=O)C(C)(C)C [Litronesib]	10.7
NC(=O)N1CCC(CC(=O)N2CCC([C@H]3c4ncc(Br)cc4CCc4cc(Cl)cc(Br)c43)CC2)CC1 [Lonafarnib]	8.85
CCNC(=O)c1noc(-c2cc(C(C)C)c(O)cc2O)c1-c1ccc(CN2CCOCC2)cc1 [Luminespib]	13.7
O=C(Nc1cccc(NC(=O)c2cccc(O)c2O)c1)c1cccc(O)c1O [MST-312]	6.05
CCN(CC)CCCC(C)Nc1c2ccc(Cl)cc2nc2ccc(OC)cc12 (centres undefined) [Mepacrine]	12.7
S=c1[nH]cnc2nc[nH]c12 [Mercaptopurine]	6.45
CN(Cc1cnc2nc(N)nc(N)c2n1)c1ccc(C(=O)N[C@@H](CCC(=O)O)C(=O)O)cc1 [Methotrexate]	0.45
CO[C@@H]1[C@H](N(C)C(=O)c2ccccc2)C[C@H]2O[C@]1(C)n1c3ccccc3c3c4c(c5c6ccccc6n2c5c31)C(=O)NC4 [Midostaurin]	9
CNC(=O)c1nn(C)c2c1C(C)(C)Cc1cnc(Nc3ccc(N4CCN(C)CC4)cc3)nc1-2 [Milciclib]	10.3
CCCCCCCCCCCCCCCCOP(=O)([O-])OCC[N+](C)(C)C [Miltefosine]	4.9
O=C1c2c(O)ccc(O)c2C(=O)c2c(NCCNCCO)ccc(NCCNCCO)c21 [Mitoxantrone]	2.7
CCS(=O)(=O)Nc1ccc(Oc2ccc(F)cc2F)c(-c2cn(C)c(=O)c3[nH]ccc23)c1 [Mivebresib]	25.8
Nc1ccccc1NC(=O)c1ccc(CNc2nccc(-c3cccnc3)n2)cc1 [Mocetinostat]	9.95

SMILES	drug sensitivity score
CCNC(=O)C[C@@H]1N=C(c2ccc(Cl)cc2)c2cc(OC)ccc2-n2c(C)nnc21 [Molibresib]	8.65
N#CCNC(=O)c1ccc(-c2ccnc(Nc3ccc(N4CCOCC4)cc3)n2)cc1 [Momelotinib]	0.75
Cc1cc(OCc2nnc(SC3CCCC3)n2-c2cccnc2)ccc1-c1ccc(S(C)(=O)=O)cc1 [NMS-873]	8.15
COc1ccc(-c2ccc3ncc4c(c3c2)n(-c2ccc(N3CCNCC3)c(C(F)(F)F)c2)c(=O)n4C)cn1 [NVP-BGT226]	10.1
COc1cc2c(cc1OC(C)C)[C@H](c1ccc(Cl)cc1)N(c1ccc(N(C)C[C@H]3CC[C@H](N4CCN(C)C(=O)C4)CC3)cc1)C(=O)C2 [NVP-CGM097]	5.75
CN[C@@H](C)C(=O)N[C@H](C(=O)N1CCC[C@H]1c1nc(C(=O)c2ccc(F)cc2)cs1)C1CCCCC1 [NVP-LCL161]	3.65
Cn1c(Nc2ccc(C(F)(F)F)cc2)nc2cc(Oc3ccnc(-c4ncc(C(F)(F)F)[nH]4)c3)ccc21 [NVP-RAF265]	0.1
CC(=O)c1cc2c(o1)C(=O)c1ccccc1C2=O [Napabucasin]	16.7
CC1(C)CCC(c2ccc(Cl)cc2)=C(CN2CCN(c3ccc(C(=O)NS(=O)(=O)c4ccc(N[C@H](CCN5CCOCC5)CSc5ccccc5)c(S(=O)(=O)C(F)(F)F)c4)cc3)CC2)C1 [Navitoclax]	1.8
CCOc1cc2ncc(C#N)c(Nc3ccc(OCc4ccccn4)c(Cl)c3)c2cc1NC(=O)/C=C/CN(C)C [Neratinib]	0.45
COC(=O)c1ccc2c(c1)NC(=O)/C2=C(\Nc1ccc(N(C)C(=O)CN2CCN(C)CC2)cc1)c1ccccc1 [Nintedanib]	7.2
CC(=O)c1cnc2ccc(-c3cc(Cl)c(O)c(Cl)c3)nc2c1N[C@H]1CC[C@H](CN(C)C)CC1 [OTS167]	10.1
O=C(c1cc(Cc2n[nH]c(=O)c3ccccc23)ccc1F)N1CCN(C(=O)C2CC2)CC1 [Olaparib]	3.35
COC(=O)C[C@](O)(CCCC(C)(C)O)C(=O)O[C@@H]1C(OC)=C[C@]23CCCN2CCc2cc4c(cc2[C@H]13)OCO4 [Omacetaxine]	23.8
CC1(C)CC[C@]2(NC(=O)C(C)(F)F)CC[C@]3(C)[C@H](C(=O)C=C4[C@@]5(C)C=C(C#N)C(=O)C(C)(C)[C@@H]5CC[C@]43C)[C@@H]2C1 [Omaveloxolone]	12.2
COc1ncc(-c2ccc3nccc(-c4ccnnc4)c3c2)cc1NS(=O)(=O)c1ccc(F)cc1F [Omipalisib]	17.8

Same assay, conditions: genetic perturbation: DOX-induced control shRNA

SMILES	drug sensitivity score
COc1cc(C(=O)O)ccc1NC(=O)[C@@H]1N[C@@H](CC(C)(C)C)[C@](C#N)(c2ccc(Cl)cc2F)[C@H]1c1cccc(Cl)c1F [Idasanutlin]	< 0
O=C(Nc1ccncc1)C(=O)c1cn(Cc2ccc(Cl)cc2)c2ccccc12 [Indibulin]	< 0
CC(C)NC[C@@H](C(=O)N1CCN(c2ncnc3c2[C@H](C)C[C@H]3O)CC1)c1ccc(Cl)cc1 [Ipatasertib]	< 0
CC(C)C[C@H](NC(=O)CNC(=O)c1cc(Cl)ccc1Cl)B(O)O [Ixazomib]	5
CCNCCS(=O)(=O)NC[C@@]1(c2ccccc2)SC(NC(=O)C(C)(C)C)=NN1C(=O)C(C)(C)C [Litronesib]	3.1
NC(=O)N1CCC(CC(=O)N2CCC([C@H]3c4ncc(Br)cc4CCc4cc(Cl)cc(Br)c43)CC2)CC1 [Lonafarnib]	8.7
CCNC(=O)c1noc(-c2cc(C(C)C)c(O)cc2O)c1-c1ccc(CN2CCOCC2)cc1 [Luminespib]	4.1
O=C(Nc1cccc(NC(=O)c2cccc(O)c2O)c1)c1cccc(O)c1O [MST-312]	8.6
CCN(CC)CCCC(C)Nc1c2ccc(Cl)cc2nc2ccc(OC)cc12 (centres undefined) [Mepacrine]	10.8
S=c1[nH]cnc2nc[nH]c12 [Mercaptopurine]	6.8
CN(Cc1cnc2nc(N)nc(N)c2n1)c1ccc(C(=O)N[C@@H](CCC(=O)O)C(=O)O)cc1 [Methotrexate]	1.5
CO[C@@H]1[C@H](N(C)C(=O)c2ccccc2)C[C@H]2O[C@]1(C)n1c3ccccc3c3c4c(c5c6ccccc6n2c5c31)C(=O)NC4 [Midostaurin]	8.9
CNC(=O)c1nn(C)c2c1C(C)(C)Cc1cnc(Nc3ccc(N4CCN(C)CC4)cc3)nc1-2 [Milciclib]	8
CCCCCCCCCCCCCCCCOP(=O)([O-])OCC[N+](C)(C)C [Miltefosine]	4.9
O=C1c2c(O)ccc(O)c2C(=O)c2c(NCCNCCO)ccc(NCCNCCO)c21 [Mitoxantrone]	2.7
CCS(=O)(=O)Nc1ccc(Oc2ccc(F)cc2F)c(-c2cn(C)c(=O)c3[nH]ccc23)c1 [Mivebresib]	14.7
